We go through one molecule from US20260130905A1, “TOPICAL FORMULATIONS OF DEUCRAVACITINIB” (Bristol-Myers Squibb Company, priority 2021, published 2026).

Assay type in all cases: physicochemical
Data set [1] in a line: Solubility of deucravacitinib in water.
A short description of data set [2]: Solubility of deucravacitinib in different solvents. An excerpt:
The solubility of deucravacitinib was examined in various solvents. […] As these solvents can, in some instances, result in skin irritation, they were not included in the development of the formulations described later in the Examples.

Data set [3] in a line: Solubility of deucravacitinib in solvent systems. From the text:
The solubility of deucravacitinib was examined in various solvent systems that included water, as water is an essential component in aqueous gels and creams. The example solvent systems in Table 2 were designed for cream formulations. The total percentage of the solvent system was up to 80% of the total % w/w of the composition, with the remaining up to 20% reserved for oil component(s). Water or acidic buffer (an aqueous solution) accounted for 25% w/w of the total composition.

[4] abbreviates: solvent: N-methyl-2-pyrrolidone (NMP).
[5] abbreviates: solvent: dimethyl sulfoxide (DMSO).

By solubility is commonly meant how much of the substance goes into solution per volume.

Converted amounts (≈) assume the structure as drawn.

With `[2H]C([2H])([2H])NC(=O)c1nnc(NC(=O)C2CC2)cc1Nc1cccc(-c2ncn(C)n2)c1OC` [Deucravacitinib, 6-(cyclopropanecarboxamido)-4-((2-methoxy-3-(1-methyl-1H-1,2,4-triazol-3-yl)phenyl)amino)-N-(methyl-d3)pyridazine-3-carboxamide], the solubility in data set [1] is approximately 9 µg/mL (≈ 21.2 µM). The molecule also showed a solubility in water in data set [1] of approximately 0.00009 % w/w. Besides, the Deucravacitinib solubility in data set [2] (solvent: Caprylic/capric triglyceride) was determined as 0.01 % w/w; in data set [2] (solvent: Diethylene glycol monoethyl ether (DEGEE)), 0.62 % w/w; in data set [2] (solvent: Diisopropyl adipate), 0.01 % w/w; in data set [2] (solvent: Dimethyl isosorbide (DMI)), 0.51 % w/w; in data set [2] (solvent: Ethanol) it was 0.07 % w/w; in data set [2] (solvent: Isopropanol), 0.02 % w/w. The Deucravacitinib solubility in data set [2] (solvent: Isopropyl myristate) worked out at 0.00 % w/w; in data set [2] (setting [4]), 10.09 % w/w; in data set [2] (solvent: Octyldodecanol), 0.01 % w/w; in data set [2] (solvent: Polyethylene glycol (PEG) 400), 0.64 % w/w; in data set [2] (solvent: Polysorbate 80), 0.31 % w/w; in data set [2] (solvent: Propylene glycol), 0.16 % w/w. The Deucravacitinib solubility in data set [2] (setting [5]) was found to be 9.49 % w/w; in data set [3] (S1: water 25, PEG 400 38, DEGEE 15, benzyl alcohol 2 % w/w) it was 0.51 % w/w; in data set [3] (S2: water 25, PEG 400 38, DMI 15, benzyl alcohol 2 % w/w) it was 0.48 % w/w; in data set [3] (S3: water 25, PEG 400 23, DEGEE 15, DMI 15, benzyl alcohol 2 % w/w), 0.72 % w/w; in data set [3] (S4: 0.1N hydrochloric acid solution 25, PEG 400 38, DEGEE 15, benzyl alcohol 2 % w/w), 0.77 % w/w; in data set [3] (S5: 0.1N hydrochloric acid solution 25, PEG 400 38, DMI 15, benzyl alcohol 2 % w/w), 0.83 % w/w. This molecule also had a Deucravacitinib solubility in data set [3] (S6: 0.1N hydrochloric acid solution 25, PEG 400 23, DEGEE 15, DMI 15, benzyl alcohol 2 % w/w) of 1.33 % w/w. For the same molecule, the “solubility (in words)” value in data set [2] (setting [4]) is given as “high solubility”; in data set [2] (setting [5]), “high solubility”; in data set [3] (three-solvent system S3 (PEG 400, DEGEE, DMI) compared to two-solvent systems S1 and S2) it was “greatest solubility”.
